This note sets out measurements from ChEMBL document CHEMBL4819148, “Anti-protozoal and anti-fungal evaluation of 3,5-disubstituted 1,2-dioxolanes” (Bioorg Med Chem Lett, 2021).

Series [1] relates to Plasmodium falciparum. Description: Antimalarial activity against Plasmodium falciparum. It is filed as functional, organism-based.
For series [2], the system named is Candida albicans. Description: Antifungal activity against wild type Candida albicans. It is filed as functional.
Series [3] deals with Candida albicans. Description: Antifungal activity against Candida albicans CAAL93 assessed as reduction in fungal growth. It is filed as functional, organism-based.
Series [4] concerns Aspergillus fumigatus. Description: Antifungal activity against Aspergillus fumigatus ASFU76 assessed as reduction in fungal growth after. It is filed as functional, organism-based.
Series [5] has as its system Plasmodium falciparum. Description: Antimalarial activity against Plasmodium falciparum 3D7 assessed as inhibition of parasite growth. It is filed as functional, organism-based.
In series [6] the test system is Leishmania donovani. Description: Antileishmanial activity against axenic amastigote form of Leishmania donovani LV9 assessed as reduction in parasite growth. It is filed as functional, organism-based.
Series [7] is described as follows: Cytotoxicity against HUVEC cells assessed as reduction in cell viability. It is filed as cell-based. To be noted: human.
Series [8] in a line: Selectivity index, ratio of CC50 for cytotoxicity against HUVEC cells to IC50 for antiplasmodial activity against Plasmodium falciparum 3D7. It is filed as toxicity, cell-based. The settings on record: human, read-out: Ratio CC50/IC50.
Series [9] in a line: Selectivity index, ratio of CC50 for cytotoxicity against HUVEC cells to IC50 for antileishmanial activity against axenic amastigote form of Leishmania donovani LV9. To be noted: human, read-out: Ratio CC50/IC50. It is filed as toxicity, cell-based.
The subject of series [10] is Leishmania donovani. Description: Antileishmanial activity against intramacrophage form of Leishmania donovani LV9 assessed as reduction in parasite growth. It is filed as functional, organism-based.

Values after ≈ are worked out from the molar mass of the structure shown. Some results are limits rather than exact numbers.

`C=C/C=C/C=C\C=C\C=C\C=C/C=C\C[C@H]1C[C@@H](CC(=O)O)OO1` returned an EC50 in [1] of 0.052 µM. For the same compound, the MIC in series [2] came to 0.61 µM (≈ 0.2 µg/mL).
With `CCCCCCC1CCOO1` (configuration not stated), the IC50 in series [3] was > 100 µM; in [4], > 100 µM; in series [5], > 1 µM; in series [6], 49.8 µM. Moreover, in series [7], the CC50 is 10.6 µM. Also, the selectivity ratio in series [8] was < 10.6; in series [9] it was 0.2.
For the compound `CCCCCCCCCCCCCCC[C@H]1C[C@@H](CC(=O)O)OO1`, the IC50 was > 100 µM in series [3], > 100 µM in series [4], > 1 µM in series [5] and 6.16 µM in series [6].
With `CC(=O)OC1CC(CCO[Si](c2ccccc2)(c2ccccc2)C(C)(C)C)OO1` (mixture of isomers), the IC50 in series [3] was > 100 µM; in [4], > 100 µM; in series [5], > 1 µM; in series [6], > 100 µM.
For the compound `C=CCC1CC(CCCCCC)OO1` (mixture of isomers), the half-inhibitory concentration (IC50) in series [3] was 25.2 µM; in series [4], > 100 µM; in series [5] it was 0.1 µM; in series [6], > 100 µM. In addition, the CC50 in series [7] is 0.7 µM. In addition, the selectivity ratio is 7 in series [8] and < 0.01 in series [9].
For the compound `CCCCCCCCCCCCCCC[C@H]1C[C@@H](CCO)OO1` (mixture of isomers), the IC50 in series [3] is > 100 µM; in [4] it was > 100 µM; in series [5] it was > 1 µM; in [6], 5.57 µM.
As for `CCCCCCC1CC(OC(C)=O)OO1` (mixture of isomers), the IC50 in [3] is > 100 µM; in [4], > 100 µM; in series [5], > 1 µM; in series [6], 70.7 µM; in series [10], > 100 µM. Also, the CC50 in series [7] was determined as 57.8 µM. The values for the selectivity ratio in series [8] and in series [9] were < 57 and 0.82, respectively.
For `CCCCCCC1CC(C/C=C\Cl)OO1` (mixture of isomers), the IC50 in series [3] is 33.4 µM; in series [4], > 100 µM; in [5], 0.15 µM; in [6], 1.5 µM; in series [10], 28.4 µM. In addition, the CC50 in series [7] came out at 6.13 µM. Besides, the results for the selectivity ratio in series [8] and in series [9] were 40 and 4.09, respectively.
Take `CCCCCCC1CC(O)OO1` (mixture of isomers): the IC50 in series [3] was > 100 µM; in [4], > 100 µM; in series [5], > 1 µM; in series [6], > 100 µM; in series [10] it was > 100 µM. Also, the CC50 in series [7] was 71.7 µM. The selectivity ratio was < 71 in [8] and < 0.72 in series [9].
Regarding `C=C(C)CC1CC(CCCCCC)OO1` (mixture of isomers), the IC50 is 35.7 µM in series [3]; 35.7 µM in series [4]; 0.17 µM in series [5]; 6.82 µM in [6]; > 100 µM in series [10]. Further, the CC50 in series [7] stood at 11.7 µM. Moreover, the selectivity ratio in series [8] was determined as 68; in [9] it was 1.71.
As for `CC(=O)OC1CC(C2CCCCC2)OO1` (mixture of isomers), the IC50 in series [3] was > 100 µM; in series [4], > 100 µM; in [5], > 1 µM; in series [6], 56.6 µM.
Consider `CC(C)C1CC(O)OO1` (mixture of isomers), for which the IC50 in [3] was > 100 µM; in series [4], > 100 µM; in series [5] it was 0.12 µM; in series [6] it was > 100 µM; in series [10] it was > 100 µM. In addition, the CC50 in [7] was found to be 28.2 µM. Further, the results for the selectivity ratio in series [8] and in [9] were 234 and < 0.28, respectively.
Regarding `CCCCCCC1CC(C/C=C\Br)OO1` (mixture of isomers), the IC50 was > 100 µM in series [3]; > 100 µM in series [4]; > 1 µM in [5]; 1.55 µM in series [6]; 33.6 µM in [10]. Further, the CC50 in series [7] came out at 2.29 µM. The selectivity ratio was < 2 in [8] and 1.48 in series [9].
With `CCCCCCC1CC(C#N)OO1` (mixture of isomers), the IC50 in [3] is > 100 µM; in series [4], > 100 µM; in series [5], > 1 µM; in [6], 42.9 µM; in series [10] it was > 100 µM. Also, the CC50 in series [7] is 10.9 µM. Further, the selectivity ratio in series [8] is < 10; in [9], 0.26.
Turning to `CC(C)(C)C1CC(O)OO1` (mixture of isomers), the IC50 in series [3] is > 100 µM; in [4], > 100 µM; in [5], 0.34 µM; in series [6] it was > 100 µM; in series [10], > 100 µM. The CC50 in series [7] worked out at 12.2 µM. The selectivity ratio was 35 in [8] and < 0.12 in series [9].
Consider `CCCCCCC1CC(CC(=O)SCC)OO1` (mixture of isomers), for which the IC50 in [3] was > 100 µM; in series [4] it was > 100 µM; in series [5] it was 0.25 µM; in series [6], 1.88 µM; in [10] it was 38.9 µM. In addition, in series [7], the CC50 is 1.89 µM. The selectivity ratio in [8] amounted to 7; in series [9], 1.01.
As to `C=CCC1CC(CCO[Si](c2ccccc2)(c2ccccc2)C(C)(C)C)OO1` (mixture of isomers), the IC50 in series [3] is > 100 µM; in series [4] it was > 100 µM; in [5], > 1 µM; in [6] it was > 100 µM.
Consider `CC(=O)OC1CC(C(C)(C)C)OO1` (mixture of isomers), for which the IC50 in [3] was > 100 µM; in series [4], > 100 µM; in series [5] it was 0.02 µM; in [6] it was > 100 µM; in series [10], 44.3 µM. Also, in series [7], the CC50 came out at 12.6 µM. For the same compound, the selectivity ratio in series [8] was 628; in series [9], < 0.13.
Regarding `CCCCCCC1CC(CC(=O)c2ccccc2)OO1` (mixture of isomers), the IC50 was > 100 µM in series [3], > 100 µM in series [4], 0.37 µM in series [5] and > 100 µM in series [6]. Further, the CC50 in series [7] is 9.02 µM. The selectivity ratio was 24 in series [8] and < 0.09 in [9].
Regarding `CCCCCCC1CC(CC(=O)Sc2ccccc2)OO1` (mixture of isomers), the IC50 in series [3] is > 100 µM; in series [4], > 100 µM; in series [5] it was > 1 µM; in [6], 2.2 µM; in series [10], > 100 µM. Moreover, in series [7], the CC50 is 1.82 µM. Besides, the values for the selectivity ratio in series [8] and in [9] were < 1.8 and 0.83, respectively.
On to `CC(=O)OC1CC(C(C)C)OO1` (mixture of isomers), for which the 50% inhibitory concentration (IC50) in [3] is > 100 µM; in [4] it was > 100 µM; in series [5] it was 0.1 µM; in series [6], > 100 µM; in series [10], 32.9 µM. Also, the CC50 in [7] was determined as 59.3 µM. Further, the selectivity ratio in series [9] was < 0.59.
As for `C=CCC1CC(C2CCCCC2)OO1` (mixture of isomers), the IC50 in series [3] was > 100 µM; in series [4] it was > 100 µM; in series [5], > 1 µM; in series [6], 6.78 µM.
For the compound `CCCCCCC1CC(CC(=O)C(C)(C)C)OO1` (mixture of isomers), the IC50 in [3] is > 100 µM; in [4] it was > 100 µM; in series [5] it was > 1 µM; in [6], 4.42 µM; in series [10] it was > 100 µM. In series [7], the CC50 came out at 6.09 µM. Besides, the selectivity ratio is < 6 in [8] and 1.38 in [9].
In the case of `C[C@@H]1[C@H](O)[C@@H](C)/C=C/C=C/C=C/C=C/C=C/C=C/C=C/[C@H](O[C@@H]2O[C@H](C)[C@@H](O)[C@H](N)[C@@H]2O)C[C@@H]2O[C@](O)(C[C@@H](O)C[C@@H](O)[C@H](O)CC[C@@H](O)C[C@@H](O)CC(=O)O[C@H]1C)C[C@H](O)[C@H]2C(=O)O` [AMPHOTERICIN B], the IC50 in series [4] is 0.33 µM.
On to `CCN(CC)CCCC(C)Nc1ccnc2cc(Cl)ccc12` (configuration not stated) [CHLOROQUINE], for which the CC50 in [7] stood at 31.5 µM.
For `OC(Cn1cncn1)(Cn1cncn1)c1ccc(F)cc1F` [FLUCONAZOLE], in series [3], the IC50 came to 0.3 µM.
`CCCCCCCCCCCCCCCCOP(=O)([O-])OCC[N+](C)(C)C` [MILTEFOSINE]: the IC50 in series [6] came to 1.7 µM; in [10] it was 0.61 µM. Besides, the CC50 in [7] came out at 54.3 µM. Also, in [9], the selectivity ratio came to 32.

Usually EC50 stands for the concentration needed to bring the measured effect to its halfway point. Lower therefore signals an effect from little substance. The term MIC denotes the lowest concentration found to suppress growth. High values mean a need for much substance, low ones inhibition by little substance. Usually IC50 stands for the concentration that gives 50% inhibition. The CC50 is the concentration at which the toxic effect on the cells reaches its halfway point.
